Results from Sander's compilation of Henry's law constants (doi:10.1136/oem.51.1.68).

Test: Henry solubility constant Hcp at 310 K (mol/(m3 Pa))
Settings: reference: Kaneko et al. (1994)

Row | Henry solubility constant Hcp at 310 K | SMILES
1 | 0.42 | CCCCCO [1-pentanol]
2 | 0.58 | CC(C)O [2-propanol]
3 | 0.0088 | CC(=O)OCCC(C)C [3-methylbutyl ethanoate]
4 | 0.01 | CC(=O)OCC(C)C [2-methylpropyl ethanoate]
5 | 0.33 | CCC(C)CO (centres undefined) [2-methyl-1-butanol]
6 | 0.042 | COC(C)=O [methyl ethanoate]
7 | 0.013 | CC(=O)OC(C)C [2-propyl ethanoate]
8 | 0.021 | CCCOC(C)=O [propyl ethanoate]
9 | 0.72 | CCCO [1-propanol]
10 | 0.028 | CCOC(C)=O [ethyl ethanoate]
11 | 0.44 | CC(C)CO [2-methyl-1-propanol]
12 | 0.83 | CCO [ethanol]
13 | 0.0093 | CCCCCOC(C)=O [pentyl ethanoate]

Row | SMILES | Henry solubility constant Hcp at 310 K
14 | CCCCOC(C)=O [butyl ethanoate] | 0.013
